Experimental data as given in US6461613B2, “Methods and compositions for the selective regulation of chorionic prostanoids” (priority 1993, dated 2002).
Ends that are not written are not given here.

Experiments:
human term placenta [1] = assay: Effect of enzyme inhibitors on prostanoid release from perifused human term placental explants (RIA); assay type: cell-based; conditions: indomethacin 50 μg/ml
Protocol: Radioimmunoassays were performed in a fashion similar to what has been previously described (Siler-Khodr et al., 1986, Biol. Reprod., 35:312) which is specifically incorporated herein for this purpose, with specific exception as noted below. A perifusion model (described in Examples 2 and 3) was employed to determine placental cell response. Media collected from the perifusion samples prepared from placental tissues were assayed. […] All the samples from a given perifusion (placenta) were determined in the same assay. At the beginning of the fifth hour of the perifusion, Medium 199 in the experimental chambers was changed to Medium 199 containing quinacrine (10 μM), EDTA (1 mM), NDGA (10 μM) or indomethacin (50 μg/ml). Four replicated chambers were perifused with control medium and each of the experimental media. This experimental design was repeated in three different perifusions using placental tissues from three different patients according to the procedure described in Example 3. […] Term placentas were obtained and placed on ice immediately after vaginal delivery from patients having spontaneous labor and delivery without any known obstetrical or medical complications. Tissues were obtained in accordance with a protocol approved by the Institutional Review Board. Within 30 minutes, the placental tissues were dissected of decidua, chorionic plates and large fetal vessels on ice. The placental tissues were cut into small fragments (approximately 25 pieces having a total weight of approximately 1 g), rinsed free of blood by repeated washing with ice cold normal saline until clear in color, and the tissue fragments placed in a 3-ml tissue chamber, placed in a 37° C. water bath. […] This medium is hereafter referred to as Medium 199. […] Perifusion was performed for two hours prior to initiation of sample collection. In this fashion, all tissues were thoroughly washed and equilibrated. Samples were collected hourly, beginning at the start of the third hour, into 12×75 mm glass tubes containing 0.1 ml indomethacin and 1100 μg/ml dimethyl sulfoxide [DMSO]. It took approximately one hour for the input medium to pass through the perifusion tubing and chamber and to be collected in the sample tube, thus the dead volume of the system was approximately 1 ml. Collection of the effluent of the 20 chambers was done simultaneously, using an ISCO fraction collector Retriever III adapted with a 20-tube rack and manifold. The prostanoid release for a given chamber was expressed as the increase over the fourth-hour prostanoid release for that chamber. Because there may be differences in the amounts of blood vessels and connective tissue among placental explants, the release expressed per unit weight results in high variance between chambers. […] Thus, the release of each chamber was related to its functional competence at the time of treatment rather than its mass. The mean release for replicate chambers from a given placenta for each particular prostanoid in the presence of arachidonic acid or each of the various enzyme inhibitors was calculated and then the mean data for each of the three different placentas was averaged at each time point. Thus, each placenta was weighted equally in the statistical analyses. Two-way analysis of variance of the average response for each prostanoid for each dose of arachidonic acid or each enzyme inhibitor studied, at each time point, was performed. The normalized data were tested for homogeneity using Cohrna's Q test, and no significant deviation was found. Thus, for each prostanoid and each treatment, where there was a significant main effect or interaction, Dunnett's comparison test was applied to determine the point(s) of significant difference as compared to the control. P<0.05 was considered to be statistically significant.

[2] = on the order of at least; cited from earlier work
human term placenta [3] = assay: Effect of dexamethasone and GnRH on prostanoid release from perifused human term placental explants; assay type: cell-based
Protocol: Medium 199 (x2) with Earles' Modified Salts, bicarbonate and L-glutamine without phenol red was purchased from Gibco (Chagrin Falls, Ohio). Penicillin, streptomycin, bovine serum albumin and Indomethacin were obtained from Sigma Chemicals (St. Louis, Mo.). Placental perifusion was performed essentially as described in Example 3.
Samples were stored at −20° C. until assayed for PGE, PGF, PGFM, Tx B2 or 6-keto-PGF1α. Recovery and stability of these prostanoids in this perifusion system and during storage were assessed by spiking the medium with prostanoids and perifusing it through empty chambers and collecting samples as described above. In addition, samples were frozen and thawed repeatedly and re-assayed. Prostanoid recovery and stability were nearly 100%. Thus, no data correction for procedural losses was done. Radioimmunoassays were performed as described in Example 1.
The perifusion system described at Examples 2 and 3 was used in the present study. […] It took one hour for the input medium to pass through the perifusion tubing and chamber and to be collected in the sample tube. Four replicated chambers were perifused with each of the three experimental media, while, in another four replicated chambers, the perifusion was continued with the control Medium 199.
Hormonal values for a given chamber were normalized to the fifth-hour prostanoid release for that chamber, expressed as a percent release over the fifth-hour release. […] Thus, the release of each chamber was related to functional competence at the time of treatment rather than to its mass.
The mean release for replicate chambers from a given placenta for each particular hormone in the presence of GnRH, dexamethasone, or GnRH and dexamethasone at each point was calculated. Similar calculations were done for the control chambers. The mean data for each treatment for the three different placentas were subjected to statistical analyses. Thus, the response for each placenta was weighed equally. Two-way analysis of variance was used to determine if there was significant main effect or interaction.
In addition, the cumulative release for each hormone from each placenta for each treatment was calculated. One-way analysis of variance was used to test for statistically significant effects of treatment. The points of significant variation were determined using Student-Newman-Keuls' test.

[4] = seven hours of perifusion, dexamethasone 10^−8 M, GnRH 10^−7 M, compared to control

With `COc1ccc2c(c1)c(CC(=O)O)c(C)n2C(=O)c1ccc(Cl)cc1` [indomethacin] the PGFM release (human term placenta [1]; after seven hours of perifusion) was 51.8 % of the release from the control, the “PGFM release, effect” value (human term placenta [1]; after three hours of exposure) was “not inhibited” and the 6-keto-PGF1α release (human term placenta [1]; continued perifusion) was 26.3 % of the control. For the same compound, the PGE release (human term placenta [1]; continued perifusion) was 24.0 % of the control, the PGF release (human term placenta [1]; continued perifusion) was 9.6 % of the control and the TxB2 release (human term placenta [1]; continued perifusion) was 30.5 % of the control. For the same compound, the 6-keto-PGF1α release (human term placenta [1]; three hours post-exposure) was 41.3 % of control, the PGE release (human term placenta [1]; three hours post-exposure) was 33.5 % of control and the PGF release (human term placenta [1]; three hours post-exposure) was 22.1 % of control. For the same compound, the TxB2 release (human term placenta [1]; three hours post-exposure) was 42.3 % of control and the “molar concentration necessary to produce pharmacological affects” value [2] was “at least 10^−3 molar (M)”.

In the case of “GnRH: gonadotropin-releasing hormone (QHWSYGLRPG; ends and bridges not checked; UniProt P01148 24-33, looked up)”, the “effect on TxB2 release” value (human term placenta [3]; GnRH 10^−7 M, within the first hour, continued throughout perifusion) is reported as “inhibition”.

For `C[C@@H]1C[C@H]2[C@@H]3CCC4=CC(=O)C=C[C@]4(C)[C@@]3(F)[C@@H](O)C[C@]2(C)[C@@]1(O)C(=O)CO` [dexamethasone], the “release as percent of control” value (human term placenta [3]; dexamethasone 10^−8 M, seventh hour of incubation) was 68 % of its control release, the “cumulative release of TxB2” value (human term placenta [3]; seven hours of perifusion, dexamethasone 10^−8 M, GnRH 10^−7 M) was 62%±6% and the “cumulative release of 6-keto-PGF1α” value (human term placenta [3]; [4]) was 73%±7%. For the same compound, the “cumulative release of PGE” value (human term placenta [3]; [4]) was 66%±4% and the “cumulative release of PGF” value (human term placenta [3]; [4]) was 71%±4%.
